In patent publication US20100056524A1, “Compound” (priority 2008, published 2010):
Structures can show the parent of a compound that is named as a salt. Where two headings read alike, the source gives them in different places.

Target: T1, TBK1 (Homo sapiens, UniProt Q9UHD2)
T1 construct: All protein kinases were of human origin and encoded full length proteins, unless indicated otherwise; His6; made in house; host or cells: insect Sf21 cells
T1 sequence (Q9UHD2 1-729): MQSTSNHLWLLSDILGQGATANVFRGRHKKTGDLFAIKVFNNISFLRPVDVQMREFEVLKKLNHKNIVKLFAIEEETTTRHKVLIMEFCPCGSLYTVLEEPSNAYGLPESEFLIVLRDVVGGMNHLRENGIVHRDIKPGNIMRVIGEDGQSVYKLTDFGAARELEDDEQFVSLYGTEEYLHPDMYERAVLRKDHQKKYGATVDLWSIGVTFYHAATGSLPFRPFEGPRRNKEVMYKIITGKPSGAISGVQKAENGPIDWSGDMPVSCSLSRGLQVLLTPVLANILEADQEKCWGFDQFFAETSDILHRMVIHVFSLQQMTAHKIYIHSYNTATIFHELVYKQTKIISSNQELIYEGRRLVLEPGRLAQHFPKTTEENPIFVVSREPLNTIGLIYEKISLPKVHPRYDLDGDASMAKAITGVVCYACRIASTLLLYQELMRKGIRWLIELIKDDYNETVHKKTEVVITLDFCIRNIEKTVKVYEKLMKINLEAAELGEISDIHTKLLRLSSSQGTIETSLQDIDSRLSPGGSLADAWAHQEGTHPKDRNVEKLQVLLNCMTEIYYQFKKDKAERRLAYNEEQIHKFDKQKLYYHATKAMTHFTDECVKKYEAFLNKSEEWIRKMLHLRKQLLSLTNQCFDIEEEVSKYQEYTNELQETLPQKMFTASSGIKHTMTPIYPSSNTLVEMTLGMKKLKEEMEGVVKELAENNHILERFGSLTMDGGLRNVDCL
Experiment: TBK1 protein kinase assay ([γ-33P]ATP, P81 filterplates)
Format: biochemical
Conditions: 50 μM ATP
Outline: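 Human TBK1 assayed for 30 min with peptide substrate (300 μM), 50 μM [γ-33P]ATP and 10 mM magnesium acetate in 50 mM Tris/HCl pH 7.5, 0.1 mM EGTA, 0.1% 2-mercaptoethanol. Stopped with orthophosphoric acid and counted on P81 filters. IC50 from 10 compound concentrations.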

[1] = read-out: Potency (TBK1 IC50 potency score)

Structure (SMILES) | IC50 [1] [nM] | IC50 (Table 5, read-out: TBK1 IC50) [nM]
CC(C)C(=O)NCCCNc1nc(Nc2cccc(F)c2)ncc1C1CC1 [Example 2, N-{3-[5-Cyclopropyl-2-(3-fluoro-phenylamino)-pyrimidin-4-ylamino]-propyl}-isobutyramide trifluoroacetic acid salt] | < 100 | –
O=C(NCCCNc1nc(Nc2cncc(F)c2)ncc1C1CC1)C1CCC1 [Example 64, Cyclobutanecarboxylic acid {3-[5-cyclopropyl-2-(5-fluoro-pyridin-3-ylamino)-pyrimidin-4-ylamino]-propyl}-amide] | < 100 | –
O=C(NCCCNc1nc(Nc2ccc(N3CCN(C4CC4)CC3)nc2)ncc1C1CC1)C1CCC1 [Example 206, Cyclobutanecarboxylic acid (3-{5-cyclopropyl-2-[6-(4-cyclopropyl-piperazin-1-yl)-pyridin-3-ylamino]-pyrimidin-4-ylamino}-propyl)-amide] | < 100 | –
O=C(NCCCNc1nc(Nc2ccc(CN3CCC(F)(F)CC3)nc2)ncc1C1CC1)C1CCC1 [Example 148, Cyclobutanecarboxylic acid (3-{5-cyclopropyl-2-[6-(4,4-difluoro-piperidin-1-ylmethyl)-pyridin-3-ylamino]-pyrimidin-4-ylamino}-propyl)-amide] | < 100 | –
O=C(NCCCNc1nc(Nc2cccc(NC(=O)N3CCCC3)c2)ncc1C1CC1)C1CCC1 [Example 144, Pyrrolidine-1-carboxylic acid (3-{4-[3-(cyclobutanecarbonyl-amino)-propylamino]-5-cyclopropyl-pyrimidin-2-ylamino}-phenyl)-amide] | < 100 | –
O=C(NCCCNc1nc(Nc2ccc3nccnc3c2)ncc1C1CC1)c1cccs1 [Example 56, Thiophene-2-carboxylic acid {3-[5-cyclopropyl-2-(quinoxalin-6-ylamino)-pyrimidin-4-ylamino]-propyl}-amide] | 100 to 1000 | –
CN1CCN(Cc2cccc(Nc3ncc(C4CC4)c(NCCCNC(=O)C4CCC4)n3)c2)CC1 [Example 122, Cyclobutanecarboxylic acid (3-{5-cyclopropyl-2-[3-(4-methyl-piperazin-1-ylmethyl)-phenylamino]-pyrimidin-4-ylamino}-propyl)-amide] | < 100 | –
O=C1Cc2cc(Nc3ncc(C4CC4)c(NCCCNC(=O)C4CCC4)n3)ccc2N1 [Example 170, Cyclobutanecarboxylic acid {3-[5-cyclopropyl-2-(2-oxo-2,3-dihydro-1H-indol-5-ylamino)-pyrimidin-4-ylamino]-propyl}-amide] | < 100 | –
O=C(NCCc1c[nH]cn1)c1cccc(Nc2ncc(C3CC3)c(NCCCNC(=O)C3CCC3)n2)c1 [Example 74, 3-{4-[3-(Cyclobutanecarbonyl-amino)-propylamino]-5-cyclopropyl-pyrimidin-2-ylamino}-N-[2-(1H-imidazol-4-yl)-ethyl]-benzamide] | < 100 | –
CNC(=O)c1ccc(Nc2ncc(C3CC3)c(NCCCNC(=O)C3CCC3)n2)cc1 [Example 164, 4-{4-[3-(Cyclobutanecarbonyl-amino)-propylamino]-5-cyclopropyl-pyrimidin-2-ylamino}-N-methyl-benzamide] | < 100 | –
CN1CCN(Cc2ccc(Nc3ncc(C4CC4)c(NCCCNC(=O)C4CCC4)n3)cn2)CC1 [Example 147, Cyclobutanecarboxylic acid (3-{5-cyclopropyl-2-[6-(4-methyl-piperazin-1-ylmethyl)-pyridin-3-ylamino]-pyrimidin-4-ylamino}-propyl)-amide] | < 100 | –
CN1CCN(c2ccc(Nc3ncc(C4CC4)c(NCCCNC(=O)C4CCC4)n3)cc2)CC1 [Example 165, Cyclobutanecarboxylic acid (3-{5-cyclopropyl-2-[4-(4-methyl-piperazin-1-yl)-phenylamino]-pyrimidin-4-ylamino}-propyl)-amide] | < 100 | –
O=C(NCCCNc1nc(Nc2cccc(C(F)(F)F)c2)ncc1C1CC1)c1cccs1 [Example 27, Thiophene-2-carboxylic acid {3-[5-cyclopropyl-2-(3-trifluoromethyl-phenylamino)-pyrimidin-4-ylamino]-propyl}-amide] | 100 to 1000 | –
O=C(NCCCNc1nc(Nc2ccc3[nH]ncc3c2)ncc1C1CC1)C1CCC1 [Example 130, Cyclobutanecarboxylic acid {3-[5-cyclopropyl-2-(1H-indazol-5-ylamino)-pyrimidin-4-ylamino]-propyl}-amide] | < 100 | –
O=C(NCCCNc1nc(Nc2cccc(C(=O)N3CCNCC3)c2)ncc1C1CC1)C1CCC1 [Example 142, Cyclobutanecarboxylic acid (3-{5-cyclopropyl-2-[3-(piperazine-1-carbonyl)-phenylamino]-pyrimidin-4-ylamino}-propyl)-amide. Hydrochloride] | < 100 | –
O=C(NCCCNc1nc(Nc2cccc(Cn3ccnc3)c2)ncc1C1CC1)C1CCC1 [Example 42, Cyclobutanecarboxylic acid {3-[5-cyclopropyl-2-(3-imidazol-1-ylmethyl-phenylamino)-pyrimidin-4-ylamino]-propyl}-amide] | < 100 | –
Cc1n[nH]c(C)c1C(=O)NCCCNc1nc(Nc2cccc(F)c2)ncc1C1CC1 [Example 13, 3,5-Dimethyl-1H-pyrazole-4-carboxylic acid {3-[5-cyclopropyl-2-(3-fluoro-phenylamino)-pyrimidin-4-ylamino]-propyl}-amide] | 1000 to 10000 | –
O=C(NCCCNc1nc(Nc2cccc(F)c2)ncc1CC1CC1)C1CCC1 [Compound C, cyclobutanecarboxylic acid {3-[5-cyclopropylmethyl-2-(3-fluoro-phenylamino)-pyrimidin-4-ylamino]-propyl}-amide, reference compound] | – | > 1000
O=C(NCCCNc1nc(Nc2ccc(NCCN3CCOCC3)nc2)ncc1C1CC1)C1CCC1 [Example 158, Cyclobutanecarboxylic acid (3-{5-cyclopropyl-2-[6-(2-morpholin-4-yl-ethylamino)-pyridin-3-ylamino]-pyrimidin-4-ylamino}-propyl)-amide] | < 100 | –
O=C(NCCCNc1nc(Nc2ccc(CN3CCCCC3)nc2)ncc1C1CC1)C1CCC1 [Example 156, Cyclobutanecarboxylic acid {3-[5-cyclopropyl-2-(6-piperidin-1-ylmethyl-pyridin-3-ylamino)-pyrimidin-4-ylamino]-propyl}-amide] | < 100 | –
O=C(NCCCNc1nc(Nc2ccc(OC3CCN(C4CC4)CC3)nc2)ncc1C1CC1)C1CCC1 [Example 188, Cyclobutanecarboxylic acid (3-{5-cyclopropyl-2-[6-(1-cyclopropyl-piperidin-4-yloxy)-pyridin-3-ylamino]-pyrimidin-4-ylamino}-propyl)-amide] | < 100 | –
O=C(NCCCNc1nc(Nc2ccccc2)ncc1C1CC1)c1cccs1 [Example 57, Thiophene-2-carboxylic acid [3-(5-cyclopropyl-2-phenylamino-pyrimidin-4-ylamino)-propyl]-amide] | 100 to 1000 | –
CN(CCCNC(=O)C1CCC1)c1nc(Nc2cccc(F)c2)ncc1C1CC1 [Example 106, Cyclobutanecarboxylic acid (3-{[5-cyclopropyl-2-(3-fluoro-phenylamino)-pyrimidin-4-yl]-methyl-amino}-propyl)-amide] | 100 to 1000 | –
O=C(NCc1ncc[nH]1)c1cccc(Nc2ncc(C3CC3)c(NCCCNC(=O)C3CCC3)n2)c1 [Example 89, 3-{4-[3-(Cyclobutanecarbonyl-amino)-propylamino]-5-cyclopropyl-pyrimidin-2-ylamino}-N-(1H-imidazol-2-ylmethyl)-benzamide. Hydrochloride salt] | < 100 | –
O=C(NCCCNc1nc(Nc2ccc(-c3cccnc3)nc2)ncc1C1CC1)C1CCC1 [Example 120, Cyclobutanecarboxylic acid {3-[2-([2,3′]bipyridinyl-5-ylamino)-5-cyclopropyl-pyrimidin-4-ylamino]-propyl}-amide] | < 100 | –
O=C(NCCCNc1nc(Nc2ccc(NC3CCOCC3)nc2)ncc1C1CC1)C1CCC1 [Example 207, Cyclobutanecarboxylic acid (3-{5-cyclopropyl-2-[6-(tetrahydro-pyran-4-ylamino)-pyridin-3-ylamino]-pyrimidin-4-ylamino}-propyl)-amide] | < 100 | –
